test: gradient 5% acetonitrile 3 min, to 50% in 2 min, to 85% in 15 min, held 3 min, 100 µL/min; conditions: column: Zorbax Extend-C18 2.1 x 50 mm; eluents: water / acetonitrile, 0.1% formic acid
How it was run: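 A Zorbax Extend-C18 column (2.1 × 50 mm, 1.8 μm) run at 100 μL/min with water and acetonitrile, both containing 0.1% formic acid, separated mixtures of ~100 pure standards. The HPLC was coupled to a quadrupole time-of-flight mass spectrometer operated in positive and negative ionization mode, with dead and dwell volumes of 40 μL and 900 μL. Each retention time was taken from a computationally picked adduct peak that was then manually inspected.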

SMILES | RP-LC retention time
COc1ccc(NC(=O)N2CCC3(CC2)N=C(c2ccc(F)cc2)C(=O)N3)c(OC)c1 | 773 s
CCOC(=O)c1cc(S(=O)(=O)N2CCCC2C(=O)Nc2cc(C)cc(C)c2)cn1C (configuration not stated) | 1020 s
Cc1ccc(CNC(=O)c2ccc(=O)n(CCN3CCCC3)c2)cc1 | 614 s
Cc1ccc2c(Nc3cc(F)cc(F)c3)c(C(=O)N3CCOCC3)cnc2n1 | 593 s
CCCNC(=O)C1CCN(c2cnc(N3CCN(CC)CC3)nc2)CC1 | 565 s
CCOc1ccc(C2C(C(=O)N3CCCCC3)=C(C)NC3=C2C(=O)CCC3)cc1OC (configuration not stated) | 674 s
COc1ccc(-c2c(C)noc2NC(C)=O)cc1S(=O)(=O)Nc1ccc(Br)cc1F | 817 s
CCOC(=O)CCNC(=O)N1CCC(CC2CC2)(NS(C)(=O)=O)CC1 | 672 s
CC(C)C(=O)N1C[C@@H](F)C[C@H]1C(=O)N1CCc2ccccc2C1 | 683 s
Cc1ccc(-c2noc(C3CCCN3S(=O)(=O)c3c(C)c(C)cc(C)c3C)n2)cc1 (configuration not stated) | 788 s
COC(=O)c1ncn2c1C(=O)N(CCCc1ccccc1)C(C)(C(=O)NC1CCCCC1)C2 (configuration not stated) | 820 s
COc1ccc(CNC(=O)C2(C)Cn3cnc(C(=O)N4CCc5ccccc54)c3C(=O)N2C2CC2)cc1 (configuration not stated) | 741 s
CC(=O)N(Cc1ccc(F)cc1)Cc1ccc2c(c1)CN(C(=O)C(C)C)CCO2 | 804 s
CC1(C(=O)NCc2ccc(F)cc2)CCCN(C(=O)Nc2ccc(F)cc2)C1 (configuration not stated) | 887 s
COc1ccc(-c2cc3n(n2)CCCN(C(=O)c2ccco2)C3)cc1 | 758 s
Cn1cc(C(CNS(=O)(=O)c2cnc[nH]2)c2cccnc2)c2ccccc21 (configuration not stated) | 590 s
CC(C)Oc1ccc(-c2noc(Cn3c(=O)n(-c4ccccc4F)c(=O)c4sccc43)n2)cc1 | 1090 s
COc1ccc(NC(=O)N2CCC(n3c(-c4ccoc4)nc4cccnc43)C2)cc1 (configuration not stated) | 698 s
CCN1C(=O)COc2ccc(-c3noc(C(C)Oc4ccccc4)n3)cc21 (configuration not stated) | 1090 s
O=C(NCC1CC(=O)N(Cc2ccccc2)C1)c1cccc(Cl)c1 (configuration not stated) | 727 s
O=C(Nc1cccnc1)C1CCCN(c2nnc3ccc(Cl)cn23)C1 (configuration not stated) | 567 s
CC(C)c1ccc(NC(=O)C2CCN(c3cncnc3N3CCOCC3)CC2)cc1 | 714 s

SMILES | RP-LC retention time
CCc1cccc(NS(=O)(=O)c2cc3n(c2)CCCNC3=O)c1 | 690 s
NC(=O)C1CCN(C(=O)Cc2csc(NC(=O)c3ccco3)n2)CC1 | 572 s
COc1cccc(Nc2c(-c3ccc(C(=O)O)cc3)nc3cnccn23)c1 | 681 s
CCOC(=O)c1[nH]c(C)c(C(=O)C(C)N(Cc2ccc(F)cc2)C(=O)C2CC2)c1C (configuration not stated) | 917 s
CCc1nc(-c2csc(S(=O)(=O)N3CCC(C(=O)NC4CC4)CC3)c2)no1 | 766 s
O=C(NCC1CCN(S(=O)(=O)C2CC2)CC1)Nc1ccccc1C(F)(F)F | 765 s
Cc1ccc(S(=O)(=O)Cc2nc(-c3cccc(Br)c3)no2)cc1 | 1040 s
CC(C)Oc1ccc(NC(=O)C2CCN(S(C)(=O)=O)c3cc(Cl)ccc3O2)cc1 (configuration not stated) | 1020 s
CC(C)CCNC(=O)C1CCN(c2cncnc2N2CCCCC2)CC1 | 674 s
Cc1ccc(Cn2c(N3CCCC(C(=O)Nc4ccc(F)cc4)C3)nc3ccsc3c2=O)cc1 (configuration not stated) | 1060 s
CCC1Oc2ccc(S(=O)(=O)N3CCC(C(=O)NCc4ccccc4)CC3)cc2NC1=O (configuration not stated) | 824 s
CCOC(=O)c1ccccc1NC(=O)N1CCC(C(=O)NCc2csc(-c3ccccc3)n2)CC1 | 993 s
O=C(NCc1[nH]nc2ccccc12)c1cccc(Cl)c1 | 805 s
Cc1ccc(-n2cc3c(c(C(=O)Nc4ccc(C)cn4)c2=O)CC(C)(C)CC3=O)cc1 | 961 s
Clc1cccc2sc(NCC3CCCO3)nc12 (configuration not stated) | 811 s
CSc1ccc(-c2nc3cnccn3c2Nc2ccc(C(=O)NCc3ccco3)cc2)cc1 | 778 s
COc1cc2c(cc1OC)[N+]([O-])=C(c1ccccc1)C2=O | 1030 s
CCOc1ccc(-n2ccn3cc(-c4cccc(Cl)c4)nc3c2=O)cc1 | 947 s
CCN1c2ccccc2C(=O)NC12CCN(C(=O)NCc1cccc(F)c1)CC2 | 740 s
CCOc1cccc2cc(C(=O)Nc3ccc(S(N)(=O)=O)cc3)oc12 | 747 s
Cc1ccc(S(=O)(=O)Nc2cccc(-c3cn4cccc(C)c4n3)c2)c(C)c1 | 703 s

Next, values leading:

RP-LC retention time | SMILES
1290 s | Clc1ccc(-c2noc(Cc3nc(-c4ccccc4)cs3)n2)cc1
997 s | COc1cccc(Cn2nc3c(S(=O)(=O)N4CCN(c5ccc(F)cc5)CC4)cccn3c2=O)c1
911 s | Cc1cc(C)cc(NC(=O)N2CCC(n3cnc4c(C)cccc4c3=O)CC2)c1
793 s | CC1CCN(C(=O)C2CCCN(c3ncnc4c3nc3n4CCCCC3)C2)CC1 (configuration not stated)
1170 s | O=C(Nc1ccc(-c2nc(-c3ccc(Cl)cc3)no2)cc1)c1ccco1
579 s | CCCN1CCN(C(=O)c2ccc3c(c2)Sc2ncccc2C(=O)N3CC)CC1
631 s | Cc1ccc(CN2CCCn3nc(C(=O)NCCN4CCCCC4)cc3C2=O)cc1
1240 s | Cc1ccc(CNC(=O)Nc2ccc(-c3nc(-c4ccc(C)cc4C)co3)cc2)cc1
973 s | CC(C)Oc1ccc(-c2noc(Cn3ccn(-c4ccc(Cl)cc4)c(=O)c3=O)n2)cc1
1140 s | COc1ccc(S(=O)(=O)N2CCC(c3noc(-c4ccc(Cl)cc4)n3)CC2)cc1
774 s | O=C(Cn1c(=O)c(CCC(=O)NC2CC2)nc2ccccc21)Nc1cc(F)cc(F)c1
959 s | Cc1cc(-c2nnc(-c3ccc(F)cc3)o2)c(C)n1CC(=O)Nc1ccccc1F
846 s | COC(=O)c1ccc(-c2nc3cnccn3c2Nc2cccc(OC)c2)cc1
1060 s | Cc1nn(-c2ccc(F)cc2)c2sc(C(=O)NCCc3ccco3)cc12
979 s | O=C(NCc1cccs1)c1ccc2nc(CCc3ccccc3)oc2c1
1320 s | CCCc1ccc(S(=O)(=O)N2CCCC2c2nc(-c3ccc(C)cc3)no2)cc1 (configuration not stated)
567 s | CN1CCCC1c1nc(C2CN(C(=O)c3ccsc3)C2)no1 (configuration not stated)
633 s | O=S(=O)(c1cccc2nsnc12)N1CCC(Cc2nc(-c3cccnc3)n[nH]2)C1 (configuration not stated)
745 s | CN1c2ccc(F)cc2C(=O)NC12CCN(C(=O)c1ccccc1F)CC2
640 s | Cn1cnc(S(=O)(=O)N2CCC(C(=O)NCc3cccs3)CC2)c1
836 s | Cc1ccc(C)c(NC(=O)N2C[C@@H](F)C[C@H]2C(=O)N2CCc3ccccc3C2)c1
879 s | Cc1cccc(CNC(=O)C2CCN(C(=O)c3ncn4c3COC(c3ccccc3)C4)CC2)c1 (configuration not stated)

RP-LC retention time | SMILES
1110 s | Cc1cc(C)cc(C(=O)N2CCCC(C(=O)Nc3ccc(Br)c(C)c3)C2)c1 (configuration not stated)
643 s | CN(C)c1ncncc1N1CCC(C(=O)NCc2ccc(Cl)cc2)CC1
867 s | O=C(NC1CCCC1)c1cn(-c2ncccc2-c2nc(-c3ccccc3)no2)cn1
726 s | CC(=O)OC1CCN(C(=O)C(C)(C)C)CC1
818 s | Cc1ccc(NC(=O)C2CCCN2S(=O)(=O)c2ccc3c(c2)CCCC(=O)N3)cc1C (configuration not stated)
1160 s | Cc1ccc(S(=O)(=O)N2CCCCC2)cc1-c1nnc(-c2ccccc2Cl)o1
787 s | O=C(NC1CC1)c1ccc(OCC2CCN(C(=O)Cc3ccc(F)cc3)CC2)cc1
763 s | Cc1ccccc1CC(=O)NC(CC(C)C)C(=O)Nc1nc2ccccc2[nH]1 (configuration not stated)
608 s | O=C(c1nc(-c2ccnc(N3CCOCC3)c2)no1)N1CCN(C2CCCCC2)CC1
940 s | CC1(C(=O)NC2CCCCC2)CN(S(=O)(=O)c2ccccc2)CC(=O)N1c1cccc(F)c1 (configuration not stated)
595 s | CN1CC2(CCN(C(=O)NC3CCCCC3)CC2)CC1C(=O)N1CCOCC1 (configuration not stated)
955 s | CC(C)c1ccccc1OCC(=O)Nc1cnn(C)c(=O)c1N1CCOCC1
755 s | Cc1cc(C)nc(NS(=O)(=O)c2ccc(NC(=O)c3ccc(Cl)s3)cc2)n1
893 s | COc1ccccc1C(=O)N1CCc2ccccc2[C@H]1C
576 s | CCNc1cc(N2CCC(CCC(=O)O)CC2)ncn1
836 s | CC(C)CC(C)NC(=O)c1ccc(CN2C(=O)C3CCCN3C(=O)c3ccccc32)cc1 (configuration not stated)
754 s | CCNc1nc(C)cc(N2CCN(S(=O)(=O)c3cccc(C(F)(F)F)c3)CC2)n1
940 s | Cn1c(=O)c2c3c(cnc2n(C)c1=O)C(=O)CC(c1ccc(F)cc1)C3 (configuration not stated)
697 s | C[C@H](Nc1ncnc2nc[nH]c12)c1cc2cccc(Cl)c2c(=O)n1-c1ccccc1
768 s | Cc1ccc(-c2noc(C3CC3)n2)cc1S(=O)(=O)N1CCC(C(=O)Nc2ncccc2C)CC1
689 s | COCCCNC(=O)Cn1c(=O)c2cccn2c2ccc(F)cc21
867 s | COc1cc(NC(=O)CN2C(=O)C(C)(C)c3cc(Cl)ccc32)cc(OC)c1OC

Source: the METLIN SMRT retention time set (Domingo-Almenara et al. 2019)
